Here are results for 24 compounds from patent publication US10730870B2, “Compounds and methods for the enhanced degradation of targeted proteins” (Arvinas, Inc., priority 2015, dated 2020).

The target in the assay is VHL (Homo sapiens (Human), UniProt P40337). In words: VHL fluorescence polarization (FP) competition assay. The class given is binding.

Bounds are passed on as bounds.

`Cc1ncsc1-c1ccc(CNC(=O)[C@@H]2C[C@@H](O)CN2C(=O)[C@@H](NC(=O)c2ccc(C#N)cc2)C(C)(C)C)cc1` [Example 43, (2S,4R)-1-((S)-2-(4-cyanobenzamido)-3,3-dimethylbutanoyl)-4-hydroxy-N-(4-(4-methylthiazol-5-yl)benzyl)pyrrolidine-2-carboxamide] had an IC50 (1% in DMSO) of 0.906 µM and an IC50 (10% in DMSO) of 1.2 µM.
`Cc1ncsc1-c1ccc(CNC(=O)[C@@H]2C[C@@](O)(CO)CN2C(=O)[C@H](C(C)C)N2Cc3ccccc3C2=O)cc1` [Example 144, (2S,4S)-4-hydroxy-4-(hydroxymethyl)-1-((S)-3-methyl-2-(1-oxoisoindolin-2-yl)butanoyl)-N-(4-(4-methylthiazol-5-yl)benzyl)pyrrolidine-2-carboxamide]: where the note is “1% in DMSO”, the “VHL FP Assay IC50” value is reported as “Not active”.
`COc1cccc2c1C(=O)N([C@H](C(=O)N1C[C@H](O)C[C@H]1C(=O)NCc1ccc(-c3scnc3C)cc1)C(C)C)C2` [Example 15, (2S,4R)-4-hydroxy-1-((S)-2-(7-methoxy-1-oxoisoindolin-2-yl)-3-methylbutanoyl)-N-(4-(4-methylthiazol-5-yl)benzyl)pyrrolidine-2-carboxamide]: the 50% inhibitory concentration (IC50) worked out at 1.22 µM (0.25% in DMSO), 24.5 µM (1% in DMSO) and 81.9 µM (10% in DMSO).
Take `CC(=O)O[C@@H](C)C(=O)N1C[C@H](O)C[C@H]1C(=O)NCc1ccc(-c2scnc2C)cc1` [Example 87, (S)-1-((2S,4R)-4-hydroxy-2-(4-(4-methylthiazol-5-yl)benzylcarbamoyl)pyrrolidin-1-yl)-1-oxopropan-2-yl acetate]: the half-maximal inhibitory concentration (IC50) by setting is: (1% in DMSO) 384 µM; (10% in DMSO) 263 µM.
As for `CC(C)[C@@H](C(=O)N1C[C@H](O)C[C@H]1C(=O)NCc1ccc(C2CCC2)cc1)N1Cc2ccccc2C1=O` [Example 114, (2S,4R)—N-(4-cyclobutylbenzyl)-4-hydroxy-1-((S)-3-methyl-2-(1-oxoisoindolin-2-yl)butanoyl)pyrrolidine-2-carboxamide], the IC50 (1% in DMSO) came to 47.3 µM.
As for `Cc1ncsc1-c1ccc(CNC(=O)[C@@H]2C[C@@H](O)CN2C(=O)[C@H](C(C)C)N2Cc3ccc(F)cc3C2=O)cc1` [Example 9], the IC50 (0.25% in DMSO) turned out to be 1.28 µM, the half-inhibitory concentration (IC50) (1% in DMSO) was 0.309 µM and the IC50 (10% in DMSO) is 0.498 µM.
The corresponding values for `Cc1ncsc1-c1ccc(CNC(=O)[C@@H]2C[C@@H](O)CN2C(=O)[C@H](C(C)C)N2Cc3c(Br)cccc3C2=O)cc1` [Example 26, (2S,4R)-1-((S)-2-(4-bromo-1-oxoisoindolin-2-yl)-3-methylbutanoyl)-4-hydroxy-N-(4-(4-methylthiazol-5-yl)benzyl)pyrrolidine-2-carboxamide] are 2.94 µM, 0.941 µM and 0.441 µM.
For the compound `Cc1ncsc1-c1ccc(CNC(=O)[C@@H]2C[C@@H](O)CN2C(=O)[C@H](C(C)C)N2Cc3cccc(Br)c3C2=O)cc1` [Example 42, (2S,4R)-1-((S)-2-(7-bromo-1-oxoisoindolin-2-yl)-3-methylbutanoyl)-4-hydroxy-N-(4-(4-methylthiazol-5-yl)benzyl)pyrrolidine-2-carboxamide], the IC50 by setting is: (1% in DMSO) 4.95 µM; (10% in DMSO) 15.7 µM.
The corresponding values for `COCCCc1ccc2c(c1)CN([C@H](C(=O)N1C[C@H](O)C[C@H]1C(=O)NCc1ccc(-c3scnc3C)cc1)C(C)C)C2=O` [Example 57, (2S,4R)-4-hydroxy-1-((S)-2-(5-(3-methoxypropyl)-1-oxoisoindolin-2-yl)-3-methylbutanoyl)-N-(4-(4-methylthiazol-5-yl)benzyl)pyrrolidine-2-carboxamide] are 0.717 µM and 1.41 µM.
Compound `CC(C)[C@@H](C(=O)N1C[C@H](O)C[C@H]1C(=O)NCc1ccc(C2CC2)cc1)N1Cc2ccccc2C1=O` [Example 113, (2S,4R)—N-(4-cyclopropylbenzyl)-4-hydroxy-1-((S)-3-methyl-2-(1-oxoisoindolin-2-yl)butanoyl)pyrrolidine-2-carboxamide] had a half-inhibitory concentration (IC50) (1% in DMSO) above 10 µM.
For the compound `Cc1ncsc1-c1ccc(CNC(=O)[C@@H]2C[C@@H](O)CN2C(=O)[C@@H](NC(=O)CCc2ccccc2)C(C)(C)C)cc1` [Example 44, (2S,4R)-1-((S)-3,3-dimethyl-2-(3-phenylpropanamido)butanoyl)-4-hydroxy-N-(4-(4-methylthiazol-5-yl)benzyl)pyrrolidine-2-carboxamide], the half-maximal inhibitory concentration (IC50) reads like this: (1% in DMSO) 0.385 µM; (10% in DMSO) 0.465 µM.
The corresponding values for `COCC#Cc1ccc2c(c1)CN([C@H](C(=O)N1C[C@H](O)C[C@H]1C(=O)NCc1ccc(-c3scnc3C)cc1)C(C)C)C2=O` [Example 53, (2S,4R)-4-hydroxy-1-((S)-2-(5-(3-methoxyprop-1-ynyl)-1-oxoisoindolin-2-yl)-3-methylbutanoyl)-N-(4-(4-methylthiazol-5-yl)benzyl)pyrrolidine-2-carboxamide] are 0.474 µM and 1.03 µM.
Taken in the same sequence, the figures for `Cc1ncsc1-c1ccc(CNC(=O)[C@@H]2C[C@@H](O)CN2C(=O)[C@H](c2cccs2)N2Cc3ccccc3C2=O)cc1` [Example 58, (2S,4R)-4-hydroxy-N-(4-(4-methylthiazol-5-yl)benzyl)-1-((R)-2-(1-oxoisoindolin-2-yl)-2-(thiophen-2-yl)acetyl)pyrrolidine-2-carboxamide] were 32.6 µM and 26.2 µM.
Consider `Cc1ncsc1-c1ccc(CNC(=O)[C@@H]2C[C@@H](O)CN2C(=O)[C@@H](NC(=O)C2CCCCC2)C(C)(C)C)cc1` [Example 36, (2S,4R)-1-((S)-2-(cyclohexanecarboxamido)-3,3-dimethylbutanoyl)-4-hydroxy-N-(4-(4-methylthiazol-5-yl)benzyl)pyrrolidine-2-carboxamide], for which the 50% inhibitory concentration (IC50) was 6.54 µM (0.25% in DMSO), 3.55 µM (1% in DMSO) and 5.48 µM (10% in DMSO).
The corresponding values for `Cc1ncsc1-c1ccc(CNC(=O)[C@@H]2C[C@@H](O)CN2C(=O)[C@@H](NC(=O)CCC(C)C)C(C)(C)C)cc1` [Example 28, (2S,4R)-1-((S)-3,3-dimethyl-2-(4-methylpentanamido)butanoyl)-4-hydroxy-N-(4-(4-methylthiazol-5-yl)benzyl)pyrrolidine-2-carboxamide] are 4.47 µM, 2.21 µM and 3.6 µM.
`CC[C@H](C)[C@H](NC(=O)CCC(C)C)C(=O)N1C[C@H](O)C[C@H]1C(=O)NCc1ccc(-c2scnc2C)cc1` [Example 31, (2S,4R)-4-hydroxy-1-((2S,3S)-3-methyl-2-(4-methylpentanamido)pentanoyl)-N-(4-(4-methylthiazol-5-yl)benzyl)pyrrolidine-2-carboxamide] had an IC50 (0.25% in DMSO) of 3.22 µM, a 50% inhibitory concentration (IC50) (1% in DMSO) of 1.28 µM and an IC50 (10% in DMSO) of 2.11 µM.
Regarding `COc1cccc(C(=O)N2C[C@H](O)CC2(C)C(=O)NCc2ccc(-c3scnc3C)cc2)c1` (stereo partly drawn) [Example 66, (4R)-4-hydroxy-1-(3-methoxybenzoyl)-2-methyl-N-(4-(4-methylthiazol-5-yl)benzyl)pyrrolidine-2-carboxamide], the “VHL FP Assay IC50” value was “Not Active” (1% in DMSO) and “Not Active” (10% in DMSO).
For the setting “10% in DMSO”, `CC(C)[C@@H](C(=O)N1C[C@H](O)C[C@H]1C(=O)NCc1ccc(C2(O)COC2)cc1)N1Cc2ccccc2C1=O` [Example 127, (2S,4R)-4-hydroxy-N-(4-(3-hydroxyoxetan-3-yl)benzyl)-1-((S)-3-methyl-2-(1-oxoisoindolin-2-yl)butanoyl)pyrrolidine-2-carboxamide] showed a concentration for half-maximal inhibition (IC50) of 406 µM.
Consider `Cc1ncsc1-c1ccc(CNC(=O)[C@@H]2C[C@@H](O)CN2C(=O)[C@H](C(C)C)N2Cc3cc(Br)ccc3C2=O)cc1` [Example 25, (2S,4R)-1-((S)-2-(5-bromo-1-oxoisoindolin-2-yl)-3-methylbutanoyl)-4-hydroxy-N-(4-(4-methylthiazol-5-yl)benzyl)pyrrolidine-2-carboxamide], for which the IC50 reads like this: (0.25% in DMSO) 2.38 µM; (1% in DMSO) 1.33 µM; (10% in DMSO) 1.67 µM.
Taken in the same sequence, the figures for `Cc1ncsc1-c1ccc(CNC(=O)[C@@H]2C[C@@H](O)CN2C(=O)[C@H](C(C)C)N2Cc3cccc(F)c3C2=O)cc1` [Example 8, (2S,4R)-1-((S)-2-(7-fluoro-1-oxoisoindolin-2-yl)-3-methylbutanoyl)-4-hydroxy-N-(4-(4-methylthiazol-5-yl)benzyl)pyrrolidine-2-carboxamide] were 3.04 µM, 0.619 µM and 1.33 µM.
For `Cc1ncsc1-c1ccc(CNC(=O)[C@@H]2CC(=O)CN2C(=O)[C@H](C(C)C)N2Cc3ccccc3C2=O)cc1` [Example 61, (S)-1-((S)-3-methyl-2-(1-oxoisoindolin-2-yl)butanoyl)-N-(4-(4-methylthiazol-5-yl)benzyl)-4-oxopyrrolidine-2-carboxamide], the “VHL FP Assay IC50” value is “Not Active” (1% in DMSO) and “Not Active” (10% in DMSO).
Compound `CC(=O)N[C@H](C(=S)N1C[C@H](O)C[C@H]1C(=O)NCc1ccc(-c2scnc2C)cc1)C(C)C` [Example 130, (2S,4R)-1-((S)-2-acetamido-3-methylbutanethioyl)-4-hydroxy-N-(4-(4-methylthiazol-5-yl)benzyl)pyrrolidine-2-carboxamide] had a half-maximal inhibitory concentration (IC50) (1% in DMSO) of 3.89 µM.
In the case of `CC[C@H](C)[C@@H](C(=O)N1C[C@H](O)C[C@H]1C(=O)NCc1ccc(-c2scnc2C)cc1)N1Cc2ccccc2C1=O` [Example 30, (2S,4R)-4-hydroxy-1-((2S,3S)-3-methyl-2-(1-oxoisoindolin-2-yl)pentanoyl)-N-(4-(4-methylthiazol-5-yl)benzyl)pyrrolidine-2-carboxamide], the half-maximal inhibitory concentration (IC50) by setting is: (0.25% in DMSO) 2.27 µM; (1% in DMSO) 0.572 µM; (10% in DMSO) 0.859 µM.
Taken in the same sequence, the figures for `CC(C)[C@@H](C(=O)N1C[C@H](O)C[C@H]1C(=O)N[C@@H](C)c1ccc(Br)cc1)N1Cc2ccccc2C1=O` [Example 24, (2S,4R)—N—((S)-1-(4-bromophenyl)ethyl)-4-hydroxy-1-((S)-3-methyl-2-(1-oxoisoindolin-2-yl)butanoyl)pyrrolidine-2-carboxamide] were 1.39 µM, 8.65 µM and 28 µM.

The IC50 is the concentration at which inhibition is half-maximal. A low value points to greater potency.
